Reference: ChEMBL document CHEMBL3044830, “Synthesis, characterization, antibacterial, antifungal, and immunomodulating activities of gatifloxacin derivatives” (Med Chem Res, 2010)

Legend:
Staphylococcus aureus = experiment: Antibacterial activity against methicillin-resistant Staphylococcus aureus assessed as zone of inhibition at 5 to 40 ug/ml after 18 to 24 hr by disk diffusion method relative to gatifloxacin; assay type: functional
Escherichia coli [1] = experiment: Antibacterial activity against Escherichia coli assessed as zone of inhibition at 5 to 40 ug/ml after 18 to 24 hr by disk diffusion method relative to gatifloxacin; assay type: functional
Fusarium solani [2] = experiment: Antifungal activity against Fusarium solani assessed as concentration required to obtain a zone of inhibition of 20 mm after 7 days by disk diffusion method; assay type: functional
Fusarium solani [3] = experiment: Antifungal activity against Fusarium solani assessed as zone of inhibition at 5 to 40 ug/ml after 7 days by disk diffusion method relative to gatifloxacin; assay type: functional
Shigella flexneri [4] = experiment: Antibacterial activity against Shigella flexneri assessed as zone of inhibition at 5 to 40 ug/ml after 18 to 24 hr by disk diffusion method relative to gatifloxacin; assay type: functional
Klebsiella pneumoniae [5] = experiment: Antibacterial activity against Klebsiella pneumoniae assessed as concentration required to obtain a zone of inhibition of 5 mm after 18 to 24 hr by disk diffusion method; assay type: functional
[6] = Antibacterial activity against Hofmanni bacterium assessed as concentration required to obtain a zone of inhibition of 20 mm after 18 to 24 hr by disc diffusion method
Proteus mirabilis [7] = experiment: Antibacterial activity against Proteus mirabilis assessed as concentration required to obtain a zone of inhibition of 5 mm after 18 to 24 hr by disc diffusion method; assay type: functional
Proteus mirabilis [8] = experiment: Antibacterial activity against Proteus mirabilis assessed as concentration required to obtain a zone of inhibition of 10 mm after 18 to 24 hr by disc diffusion method; assay type: functional
Citrobacter [9] = experiment: Antibacterial activity against Citrobacter assessed as concentration required to obtain a zone of inhibition of 5 mm after 18 to 24 hr by disk diffusion method; assay type: functional
Bacillus subtilis [10] = experiment: Antibacterial activity against Bacillus subtilis assessed as zone of inhibition at 5 to 40 ug/ml after 18 to 24 hr by disk diffusion method relative to gatifloxacin; assay type: functional
Proteus mirabilis [11] = experiment: Antibacterial activity against Proteus mirabilis assessed as zone of inhibition at 5 to 40 ug/ml after 18 to 24 hr by disc diffusion method relative to gatifloxacin; assay type: functional
Citrobacter [12] = experiment: Antibacterial activity against Citrobacter assessed as concentration required to obtain a zone of inhibition of 10 mm after 18 to 24 hr by disk diffusion method; assay type: functional
Escherichia coli [13] = experiment: Antibacterial activity against Escherichia coli assessed as concentration required to obtain a zone of inhibition of 5 mm after 18 to 24 hr by disk diffusion method; assay type: functional
Trichophyton rubrum [14] = experiment: Antifungal activity against Trichophyton rubrum assessed as concentration required to obtain a zone of inhibition of 40 mm after 7 days by disk diffusion method; assay type: functional
Saccharomyces cerevisiae = experiment: Antifungal activity against Saccharomyces cerevisiae assessed as zone of inhibition at 5 to 40 ug/ml after 7 days by disk diffusion method relative to gatifloxacin; assay type: functional
Klebsiella pneumoniae [15] = experiment: Antibacterial activity against Klebsiella pneumoniae assessed as concentration required to obtain a zone of inhibition of 20 mm after 18 to 24 hr by disk diffusion method; assay type: functional
Klebsiella pneumoniae [16] = experiment: Antibacterial activity against Klebsiella pneumoniae assessed as zone of inhibition at 5 to 40 ug/ml after 18 to 24 hr by disk diffusion method relative to gatifloxacin; assay type: functional
Escherichia coli [17] = experiment: Antibacterial activity against Escherichia coli assessed as concentration required to obtain a zone of inhibition of 20 mm after 18 to 24 hr by disk diffusion method; assay type: functional
[18] = Antibacterial activity against Hofmanni bacterium assessed as zone of inhibition after 18 to 24 hr by disc diffusion method relative to gatifloxacin
Bacillus subtilis [19] = experiment: Antibacterial activity against Bacillus subtilis assessed as concentration required to obtain a zone of inhibition of 20 mm after 18 to 24 hr by disk diffusion method; assay type: functional
Bacillus subtilis [20] = experiment: Antibacterial activity against Bacillus subtilis assessed as concentration required to obtain a zone of inhibition of 10 mm after 18 to 24 hr by disk diffusion method; assay type: functional
Escherichia coli [21] = experiment: Antibacterial activity against Escherichia coli assessed as concentration required to obtain a zone of inhibition of 10 mm after 18 to 24 hr by disk diffusion method; assay type: functional
Trichophyton rubrum [22] = experiment: Antifungal activity against Trichophyton rubrum assessed as zone of inhibition at 5 to 40 ug/ml after 7 days by disk diffusion method relative to gatifloxacin; assay type: functional
Candida albicans [23] = experiment: Antifungal activity against Candida albicans assessed as concentration required to obtain a zone of inhibition of 40 mm after 7 days by disk diffusion method; assay type: functional
Shigella flexneri [24] = experiment: Antibacterial activity against Shigella flexneri assessed as concentration required to obtain a zone of inhibition of 5 mm after 18 to 24 hr by disk diffusion method; assay type: functional
Shigella sp. [25] = experiment: Antibacterial activity against Shigella typhi assessed as zone of inhibition after 18 to 24 hr by disc diffusion method relative to gatifloxacin; assay type: functional
[26] = Antibacterial activity against Hofmanni bacterium assessed as concentration required to obtain a zone of inhibition of 5 mm after 18 to 24 hr by disc diffusion method
Trichophyton rubrum [27] = experiment: Antifungal activity against Trichophyton rubrum assessed as concentration required to obtain a zone of inhibition of 20 mm after 7 days by disk diffusion method; assay type: functional
Pseudomonas aeruginosa [28] = experiment: Antibacterial activity against Pseudomonas aeruginosa assessed as concentration required to obtain a zone of inhibition of 5 mm after 18 to 24 hr by disk diffusion method; assay type: functional
Proteus mirabilis [29] = experiment: Antibacterial activity against Proteus mirabilis assessed as concentration required to obtain a zone of inhibition of 20 mm after 18 to 24 hr by disc diffusion method; assay type: functional
Shigella flexneri [30] = experiment: Antibacterial activity against Shigella flexneri assessed as concentration required to obtain a zone of inhibition of 20 mm after 18 to 24 hr by disk diffusion method; assay type: functional
[31] = Antibacterial activity against Hofmanni bacterium assessed as concentration required to obtain a zone of inhibition of 10 mm after 18 to 24 hr by disc diffusion method
Fusarium solani [32] = experiment: Antifungal activity against Fusarium solani assessed as concentration required to obtain a zone of inhibition of 40 mm after 7 days by disk diffusion method; assay type: functional
Bacillus subtilis [33] = experiment: Antibacterial activity against Bacillus subtilis assessed as concentration required to obtain a zone of inhibition of 5 mm after 18 to 24 hr by disk diffusion method; assay type: functional
Pseudomonas aeruginosa [34] = experiment: Antibacterial activity against Pseudomonas aeruginosa assessed as zone of inhibition at 5 to 40 ug/ml after 18 to 24 hr by disk diffusion method relative to gatifloxacin; assay type: functional
Citrobacter [35] = experiment: Antibacterial activity against Citrobacter assessed as zone of inhibition at 5 to 40 ug/ml after 18 to 24 hr by disk diffusion method relative to gatifloxacin; assay type: functional
Candida albicans [36] = experiment: Antifungal activity against Candida albicans assessed as concentration required to obtain a zone of inhibition of 20 mm after 7 days by disk diffusion method; assay type: functional
Shigella flexneri [37] = experiment: Antibacterial activity against Shigella flexneri assessed as concentration required to obtain a zone of inhibition of 10 mm after 18 to 24 hr by disk diffusion method; assay type: functional
Shigella sp. [38] = experiment: Antibacterial activity against Shigella typhi assessed as concentration required to obtain a zone of inhibition of 5 mm after 18 to 24 hr by disc diffusion method; assay type: functional
Klebsiella pneumoniae [39] = experiment: Antibacterial activity against Klebsiella pneumoniae assessed as concentration required to obtain a zone of inhibition of 10 mm after 18 to 24 hr by disk diffusion method; assay type: functional
Citrobacter [40] = experiment: Antibacterial activity against Citrobacter assessed as concentration required to obtain a zone of inhibition of 20 mm after 18 to 24 hr by disk diffusion method; assay type: functional
Pseudomonas aeruginosa [41] = experiment: Antibacterial activity against Pseudomonas aeruginosa assessed as concentration required to obtain a zone of inhibition of 10 mm after 18 to 24 hr by disk diffusion method; assay type: functional
Pseudomonas aeruginosa [42] = experiment: Antibacterial activity against Pseudomonas aeruginosa assessed as concentration required to obtain a zone of inhibition of 20 mm after 18 to 24 hr by disk diffusion method; assay type: functional
Candida albicans [43] = experiment: Antifungal activity against Candida albicans assessed as zone of inhibition at 5 to 40 ug/ml after 7 days by disk diffusion method relative to gatifloxacin; assay type: functional

C[C@@H]1CN(c2c(F)c(N)c3c(=O)c(C(=O)O)cn(C4CC4)c3c2F)C[C@H](C)N1 [SPARFLOXACIN]
inhibition zone (IZ) (Staphylococcus aureus): 77.2% | inhibition zone (IZ) (Escherichia coli [1]): 98.01% | Activity (Fusarium solani [2]): 10 µg/mL | inhibition zone (IZ) (Fusarium solani [3]): 70% | inhibition zone (IZ) (Shigella flexneri [4]): 75.1% | Activity (Klebsiella pneumoniae [5]): 10 µg/mL | Activity [6]: 14 µg/mL | Activity (Proteus mirabilis [7]): 10 µg/mL | Activity (Proteus mirabilis [8]): 12 µg/mL | Activity (Citrobacter [9]): 8 µg/mL | inhibition zone (IZ) (Bacillus subtilis [10]): 94.6% | inhibition zone (IZ) (Proteus mirabilis [11]): 90% | Activity (Citrobacter [12]): 9 µg/mL | Activity (Escherichia coli [13]): 9 µg/mL | Activity (Trichophyton rubrum [14]): 24 µg/mL | inhibition zone (IZ) (Saccharomyces cerevisiae): 0% | Activity (Klebsiella pneumoniae [15]): 16 µg/mL | inhibition zone (IZ) (Klebsiella pneumoniae [16]): 96.1% | Activity (Escherichia coli [17]): 14 µg/mL | inhibition zone (IZ) [18]: 110% | Activity (Bacillus subtilis [19]): 15 µg/mL | Activity (Bacillus subtilis [20]): 13 µg/mL | Activity (Escherichia coli [21]): 11 µg/mL | inhibition zone (IZ) (Trichophyton rubrum [22]): 169% | Activity (Candida albicans [23]): 17 µg/mL | Activity (Shigella flexneri [24]): 9 µg/mL | inhibition zone (IZ) (Shigella sp. [25]): 87% | Activity [26]: 11 µg/mL | Activity (Trichophyton rubrum [27]): 20 µg/mL | Activity (Pseudomonas aeruginosa [28]): 11 µg/mL | Activity (Proteus mirabilis [29]): 15 µg/mL | Activity (Shigella flexneri [30]): 13 µg/mL | Activity [31]: 13 µg/mL | Activity (Fusarium solani [32]): 11 µg/mL | Activity (Bacillus subtilis [33]): 12 µg/mL | inhibition zone (IZ) (Pseudomonas aeruginosa [34]): 117.6% | inhibition zone (IZ) (Citrobacter [35]): 42.73% | Activity (Candida albicans [36]): 13 µg/mL | Activity (Shigella flexneri [37]): 11 µg/mL | Activity (Shigella sp. [38]): 9 µg/mL | Activity (Klebsiella pneumoniae [39]): 13 µg/mL | Activity (Citrobacter [40]): 10 µg/mL | Activity (Pseudomonas aeruginosa [41]): 13 µg/mL | Activity (Pseudomonas aeruginosa [42]): 15 µg/mL | inhibition zone (IZ) (Candida albicans [43]): 176%
